Experimental data taken from US20190117655A1, “Treatment of Biliary Duct Cancer” (ASLAN Pharmaceuticals PTE LTD, priority 2015, published 2019).
Where two headings read alike, the source gives them in different places.

Legend:
[1] = system: stage IV cholangiocarcinoma; assay: Example 3: person, stage IV cholangiocarcinoma, Varlitinib with cisplatin/capecitabine; type: in vivo, human; settings: Varlitinib 400 mg bi-daily, cisplatin and capecitabine
Method: A person with stage IV cholangiocarcinoma (3 lesions) had progressive disease following treatment with: • radiotherapy, and • gemcitabine (Gemzar®) and cisplatin—6 months. […] The cisplatin and capecitabine regime was cisplatin 80 mg/m^2 IV infusion and capecitabine 1000 mg/m^2 orally twice daily for 14 days every 3 weeks.

gastric tumours = settings: 500 mg orally BID monotherapy 28 days, gastric tumours co-expressing EGFR and HER2 or HER2 amplified, cited from earlier work
[2] = Combination of Varlitinib and Herceptin versus either alone; settings: Varlitinib in combination with Herceptin (trastuzumab)
Text: In one embodiment the compound of formula (I), such as Varlitinib, is employed in combination with at least one further HER inhibitor, for example a combination of Varlitinib and Herceptin (trastuzumab) and/or pertuzumab.

[3] = system: advanced or metastatic biliary tract cancer; assay: Example 10: Phase 2A single arm study of varlitinib plus capecitabine in Chinese patients (NCT03231176); type: in vivo, human; settings: Varlitinib 300 mg BID plus capecitabine 1000 mg/m^2 BID 2 weeks on, 1 week off; ongoing study
Method: This study is to assess the efficacy of varlitinib (300 mg twice daily in a 21-day cycle) plus capecitabine (1,000 mg/m^2 twice daily for 2 weeks followed by a 7-day rest period) in patients with advanced or metastatic BTC.
Primary Objective: • To assess the efficacy of varlitinib plus capecitabine in patients with advanced or metastatic biliary tract cancer who progressed on first line of systemic therapy as measured by Objective Response Rate (ORR) based on RECIST v1.1.
Secondary Objectives: • To evaluate the efficacy of varlitinib plus capecitabine, as measured by duration of confirmed response (DoR), progression-free survival (PFS), overall survival (OS) and disease control rate (DCR) • To assess the safety and tolerability of varlitinib when combined with capecitabine
A phase 2A, single arm, multicentre study of varlitinib plus capecitabine in Chinese patients with advanced or metastatic biliary tract cancer who progressed on at least 1 line of systemic therapy.
The Study duration is divided into 3 different stages.
• Have histologically or cytologically confirmed advanced (unresectable) or metastatic BTC, including intrahepatic or extrahepatic CCA, gallbladder cancer and carcinoma of Ampulla of Vater. […]

[4] = system: stage IV cholangiocarcinoma; assay: Example 1: person, stage IV EGFR positive cholangiocarcinoma, Varlitinib monotherapy; type: in vivo, human
[5] = system: stage IV cholangiocarcinoma; assay: Example 7: person, stage IV cholangiocarcinoma, Varlitinib with cisplatin/5-FU then monotherapy; type: in vivo, human
Method: A person with stage IV cholangiocarcinoma newly diagnosed in 2014 received surgery (percutaneous […] cholangial drainage and transcatheter […] embolization), followed by adjuvant treatment of Varlitinib 400 mg BID combined with cisplatin s/5-FU 28-day cycle. After cycle 6 (14 Jul. 2015), only 400 mg BID Varlitinib was taken. Patient completed 10 cycles of monotherapy. At Cycle 11 Day 1, dose was reduced to 300 mg BID alternate days. […] 2015. Progressive disease observed in cycle 16 of monotherapy 12 Apr. 2016.

cholangiocarcinoma = assay: Second line monotherapy trial in cholangiocarcinoma patients, CA19-9 marker; type: in vivo, human
Text: CA19-9 is a marker employed in the management of cholangiocarcinoma.

[6] = system: stage IV cholangiocarcinoma and metastatic lymphadenopathy; assay: Example 5: person, stage IV cholangiocarcinoma and metastatic lymphadenopathy, Varlitinib with cisplatin/5-FU; type: in vivo, human; settings: 300 mg BID Varlitinib with cisplatin/5-FU
Method: A person was diagnosed with stage IV cholangiocarcinoma and metastatic lymphadenopathy in January 2016. No prior surgery or treatment was given before initiating first line treatment of 300 mg BID Varlitinib combined with […]/5-FU, 28-day treatment cycle. Date of the first response 5 Mar. 2016, tumor C2 was reduced by 16%. Last response tumor C4 was reduced by 13% (17 May 2016).

[7] = system: intrahepatic cholangiocarcinoma, stage IV; assay: Example 8: person, stage IV intrahepatic cholangiocarcinoma, Varlitinib with mFOLFOX6 then monotherapy (ASLAN001-002SG); type: in vivo, human; settings: after cycle 18
Text: They received left hemihepatectomy followed by 6 cycles of adjuvant gemcitabine and cisplatin.

[8] = system: extra-hepatic cholangiocarcinoma; assay: Example 2: person, stage IV extra-hepatic cholangiocarcinoma, Varlitinib with cisplatin/capecitabine then monotherapy; type: in vivo, human
Method: A person, stage IV, extra-hepatic cholangiocarcinoma, prior treatment: • Whipple • Radiotherapy • Gemzar/cisplatin for 6 months For the first 6 cycles, the patient received Varlitinib 400 mg BID continuously with cisplatin (80 mg/m^2 every 3 weeks) and capecitabine (1000 mg/m2 BID, 2 weeks on, 1 week off). […] In summary, the patient received varlitinib with chemo for 6 cycles and varlitinib monotherapy for another 4 cycles (3 weeks per cycle).

[9] = system: stage IV cholangiocarcinoma; assay: Example 4: person, stage IV cholangiocarcinoma, Varlitinib 500 mg with cisplatin/capecitabine; type: in vivo, human; settings: after treatment cycle 2; Varlitinib 500 mg bi-daily, cisplatin and capecitabine
Method: A person with stage IV cholangiocarcinoma had progressive disease following treatment with radiotherapy and bi-weekly 5-FU. […] The cisplatin and capecitabine regime was cisplatin 80 mg/m^2 IV infusion and capecitabine 1000 mg/m^2 orally twice daily for 14 days every 3 weeks.

[10] = system: intrahepatic bile duct cholangiocarcinoma; assay: Example 6: person, intrahepatic bile duct cholangiocarcinoma, Varlitinib with FOLFOX then monotherapy; type: in vivo, human; settings: 9 cycles Varlitinib 400 mg reduced to 300 mg BID with FOLFOX, then 7 cycles monotherapy
Method: A person diagnosed in 2013 with intrahepatic bile duct cholangiocarcinoma, had received surgery in the form of left hemihepatectomy in 15 Jul. 2013. Prior therapies were gemcitabine and cisplatin (in the period 14 Aug. 2013 to 8 Jan. 2014) and repeated between 13 May 2015 and 1 Jul. 2015. With this treatment the status was progressive disease. The patient was given 9 cycles of a combination of Varlitinib 400 mg reduced to 300 mg BID and FOLFOX. This was followed with 7 cycles of Varlitinib monotherapy.

[11] = system: treatment naïve advanced or metastatic biliary tract cancer (BTC); type: in vivo; settings: for Median progression-free survival (PFS): at data cut-off
Method: The primary objectives for the phase Ib study are to determine the maximum tolerated dose (MTD) and to characterize the safety profile of varlitinib when given with gem/cis. Secondary objectives include evaluation of preliminary efficacy of the study regimen and to evaluate the pharmacokinetics of varlitinib, and any circulating metabolites. A modified 3+3+3 escalation design was used, with 2 varlitinib dose levels (200 and 300 mg twice daily) combined with cisplatin (25 mg/m^2, IV for 2 hours), followed by Gemcitabine (1000 mg/m^2, 30-minute infusion) on Day 1 and Day 8 in a 3 weeks cycle.

[12] = system: advanced or metastatic biliary tract cancer; settings: capecitabine monotherapy, similar populations; cited from earlier work
[13] = after treatment cycle 6, Varlitinib 400 mg bi-daily monotherapy
[14] = Cohort of 200 mg BID, with gem/cis
[15] = Cohort of 300 mg BID, with gem/cis

C[C@@H]1COC(Nc2ccc3ncnc(Nc4ccc(OCc5nccs5)c(Cl)c4)c3c2)=N1 [Varlitinib, (R)—N4-[3-Chloro-4-(thiazol-2-ylmethoxy)-phenyl]-N6-(4-methyl-4,5,-dihydro-oxazol-2-yl)-quinazoline-4,6-diamine]
Tolerability [1]: well tolerated
Response ([1]; after treatment cycle 6): 85.77%
Dose limiting toxicity ([1]; first two treatment cycles): No dose limiting toxicity was observed
Signs of clinical activity: signalling pathways responsible for cell proliferation (gastric tumours; biopsies before/after): downregulation of signalling pathways responsible for cell proliferation
Signs of clinical activity: cell survival and cell proliferation in gastric tumours (gastric tumours): reduction in cell survival and cell proliferation
Therapeutic activity of combination versus either entity alone [2]: more therapeutic activity than either entity alone
Safety and tolerability [3]: safe and tolerated without any unexpected adverse events
Decrease in size of liver tumours [4, 13]: up to 23%
Tumour marker CA 19-9 after treatment [4, 13]: ~250 U/ml
Tumour marker CA 19-9, starting level ([4]; level from which the marker fell): ~900 U/ml
Cycle of treatment in which first response was observed ([5]; Varlitinib 400 mg BID with cisplatin/5-FU, 28-day cycle): 2 cycle
Cycle in which progressive disease was observed ([5]; Varlitinib monotherapy after cycle 6): 16 cycle
Disease control ([5]; varlitinib monotherapy after 6 cycles of varlitinib with cisplatin/5-FU): remarkable disease control
Reduction in CA19-9 (cholangiocarcinoma; one patient, within one month of initiating Varlitinib): 90%
CA19-9 levels (cholangiocarcinoma; second line Varlitinib monotherapy, cholangiocarcinoma patients): significant reduction
Current disease status [6]: stable disease
Tumor reduction, first response ([6]; C2, first line): 16%
Tumor reduction, last response ([6]; C4, first line): 13%
Reduction in tumor size, best response from baseline ([7]; 9 cycles Varlitinib 400 mg BID with mFOLFOX6, then 9 cycles monotherapy): 53%
Tumor assessment status [7]: partial response
Duration of partial remission ([8]; 6 cycles with chemo then monotherapy): 24 weeks
Reduction in tumour size ([8]; end of cycle 6, Varlitinib 400 mg BID with cisplatin 80 mg/m^2 and capecitabine 1000 mg/m2 BID): 85.77%
Reduction in tumour size ([8]; end of cycle 8, varlitinib monotherapy after cycle 6): 87%
Disease status by RECIST ([8]; end of cycle 10, on varlitinib monotherapy): disease progression
Response [9]: 4%
Patient status [10]: partial response
Reduction in tumor size [10]: 50%
Median progression-free survival (PFS) ([11]; 200 mg cohort, with gem/cis): 238 days
Median progression-free survival (PFS) ([11]; 300 mg cohort, with gem/cis): not reached
DCR overview: Complete Response, patients ([11]; All, with gem/cis): 0
DCR overview: Non-responders, patients ([11]; All, with gem/cis): 4
DCR overview: PD, patients ([11]; All, with gem/cis): 0
DCR overview: Partial Response, patients ([11]; All, with gem/cis): 7
DCR overview: Responders, patients ([11]; All, with gem/cis): 17
DCR overview: Responders, share of evaluable patients ([11]; All, with gem/cis): (81.0%)
DCR overview: SD (≤12 weeks), patients ([11]; All, with gem/cis): 2
DCR overview: SD (≥12 weeks), patients ([11]; All, with gem/cis): 10
ORR overview: Complete Response, patients ([11]; All, with gem/cis): 0
ORR overview: PD, patients ([11]; All, with gem/cis): 0
ORR overview: Partial Response, patients ([11]; All, with gem/cis): 7
ORR overview: Partial Response, share of evaluable patients ([11]; All, with gem/cis): (33.3%)
ORR overview: SD (≥6 weeks), patients ([11]; All, with gem/cis): 12
DCR overview: Complete Response, patients [11, 14]: 0
DCR overview: Non-responders, patients [11, 14]: 1
DCR overview: PD, patients [11, 14]: 0
DCR overview: Partial Response, patients [11, 14]: 4
DCR overview: Responders, patients [11, 14]: 10
DCR overview: Responders, share of evaluable patients [11, 14]: (90.9%)
DCR overview: SD (≤12 weeks), patients [11, 14]: 1
DCR overview: SD (≥12 weeks), patients [11, 14]: 6
ORR overview: Complete Response, patients [11, 14]: 0
ORR overview: PD, patients [11, 14]: 0
ORR overview: Partial Response, patients [11, 14]: 4
ORR overview: Partial Response, share of evaluable patients [11, 14]: (36.4%)
ORR overview: SD (≥6 weeks), patients [11, 14]: 7
DCR overview: Complete Response, patients [11, 15]: 0
DCR overview: Non-responders, patients [11, 15]: 3
DCR overview: PD, patients [11, 15]: 0
DCR overview: Partial Response, patients [11, 15]: 3
DCR overview: Responders, patients [11, 15]: 7
DCR overview: Responders, share of evaluable patients [11, 15]: (70.0%)
DCR overview: SD (≤12 weeks), patients [11, 15]: 1
DCR overview: SD (≥12 weeks), patients [11, 15]: 4
ORR overview: Complete Response, patients [11, 15]: 0
ORR overview: PD, patients [11, 15]: 0
ORR overview: Partial Response, patients [11, 15]: 3
ORR overview: Partial Response, share of evaluable patients [11, 15]: (30%)
ORR overview: SD (≥6 weeks), patients [11, 15]: 5
Antitumor activity ([11]; both 200 mg and 300 mg cohorts, Varlitinib plus gem/cis): Antitumor activity was observed
Patients with partial response per RECIST v1.1 ([11]; both cohorts, with gem/cis): 7 patients
Patients with stable disease more than 12 weeks ([11]; both cohorts, with gem/cis): 10 patients
All-grade adverse event: anaemia ([11]; human, in vivo): 33%
All-grade adverse event: decreased appetite ([11]; human, in vivo): 38%
All-grade adverse event: diarrhoea ([11]; human, in vivo): 38%
All-grade adverse event: nausea ([11]; human, in vivo): 38%
All-grade adverse event: neutrophil decreased ([11]; human, in vivo): 38%
All-grade adverse event: platelet decreased ([11]; human, in vivo): 52%
Dose limiting toxicities observed, number of patients ([11]; human, in vivo): 3 patients
Grade ≥3 adverse event: anaemia ([11]; human, in vivo): 19%
Grade ≥3 adverse event: neutrophil decreased ([11]; human, in vivo): 33%
Grade ≥3 adverse event: platelet decreased ([11]; human, in vivo): 29%
Disease control rate ([11]; with gem/cis): 81.0%

CCCCCOC(=O)Nc1nc(=O)n([C@@H]2O[C@H](C)[C@@H](O)[C@H]2O)cc1F [capecitabine]
Historical response rate, ORR [12]: 6-8%
